How the values were obtained:
[1] = test system: LPA (lysophosphatidic acid) receptor; experiment: LPA receptor binding
Experimental: Indeed, the molecular structure of JPH1701 resembles to LPA and PAF. This similarity between the molecular structures prompted us to analyse whether some of the JPH1701's effects were mediated through its binding to the PAF receptor or to the LPA (lysophosphatidic acid) receptor. […] The same results were obtained with LPA receptor (105.3±8.0% and 87.2±4.7% of LPA binding respectively at 0.3 and 2 μM JPH1701). It has been also reported that edelfosine inhibits enzyme activity like protein kinase C or phospholipase C that may explain some of its cytostatic and cytotoxic effects.

PAF receptor = PAF receptor (Homo sapiens, UniProt P25105); experiment: 3H-C16-PAF binding, membrane homogenates of CHO cells; set-up: expressed in transfected cells; host or cells: CHO cells (membrane homogenates); settings: 0.3 and 2 μM, FIG. 11A
Chain of PAF receptor (P25105 whole entry): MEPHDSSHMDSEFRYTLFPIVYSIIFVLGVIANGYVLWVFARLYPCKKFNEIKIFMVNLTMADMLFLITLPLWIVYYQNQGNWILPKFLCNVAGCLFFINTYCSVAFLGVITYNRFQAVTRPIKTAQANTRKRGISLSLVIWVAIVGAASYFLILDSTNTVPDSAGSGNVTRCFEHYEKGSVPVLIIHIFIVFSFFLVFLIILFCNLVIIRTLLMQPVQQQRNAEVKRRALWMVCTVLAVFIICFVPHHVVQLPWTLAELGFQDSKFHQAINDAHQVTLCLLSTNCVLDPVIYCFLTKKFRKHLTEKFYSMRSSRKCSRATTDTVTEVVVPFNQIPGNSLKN
Experimental: (§1) FIG. 11: Effects of JPH1701 on PAF receptor, PLC and PKCs activities. FIG. 11A) Histogram showing the percentage of control specific binding of 3H-C16-PAF to recombinant PAF receptor obtained from membrane homogenates of CHO cells by 0.3 and 2 μM edelfosine and by 0.3 and 2 μM JPH1701. FIG. 11B) Histogram showing the percentage of control agonist response (% effect i.e: increase of intracellular calcium concentration) of 0.3 and 2 μM edelfosine and JPH1701 on PAF receptor normalized to the response induced by 100 nM C16-PAF. […] FIG. 11C-D) Dose responses curves showing the effect of JPH1701 on PKCs (FIG. 11C, PKCs are: alpha, Beta 1, Beta 2, Gamma, Delta, Epsilon, Zeta, Eta, Theta, Iota) and PhosphoLipase C (PLC) activities (FIG. 11D).

[2] = test system: endogenously HEK potassium current; experiment: Endogenous HEK potassium current (patch clamp); type: cell-based; settings: applied concentration range; data not shown
Experimental: Whatever the concentration tested approximately 40 sec was needed to reduce 50% of the amplitude of the current. […] Increasing intracellular calcium concentration by the addition of 5 μM A23187 totally reversed the effect of JPH1701 (data not shown).

PKCs = PKCs activity (alpha, Beta 1, Beta 2, Gamma, Delta, Epsilon, Zeta, Eta, Theta, Iota); type: biochemical; settings: ten PKCs, FIG. 11C
Experimental: as §1

MDA-MB-435s-luc cells = experiment: Mammary fat pad (MFP)-model tumor; type: in vivo, NMRI nude mice; settings: 15 mg/kg i.v. three times a week
Experimental: FIG. 10. Anti-metastatic effect of JPH1701 on experimental metastasis model. Two millions of MDA-MB-435s-luc cells pre-treated for 24 hours with JPH1701 (1 μM) or vehicle were grafted in MFP of NMRI/Nude mice. Mice were treated three times a week with JPH1701 at 15 mg/kg in i.v. or with vehicle during all the experiments (14-15 weeks). The primary tumor was surgical removed when its volume attempted 500 mm3 (6-7 weeks post-graft). Mice were euthanized 7-8 weeks after surgical removed of the primary tumor. FIG. 10A-B) In vivo BLI of metastases from mice treated with vehicle (FIG. 10A) or with JPH1701 (FIG. 10B) before euthanasia. FIG. 10C) Number of tissue with metastases detected ex vivo by bioluminescence (including lymph nodes, lungs, rachis and bone legs) after euthanasia. FIG. 10D) Metastatic score of mice treated with vehicle or with JPH1701. Two parameters were used to assess the metastatic score of each mouse: (i) Number of tissue or organ with metastases detected ex vivo by BLI and (ii) BLI intensity (photon/min) of each metastasis. […] The score of each cohort (sum of individually score) represents the degree of metastatic development assessed in vivo by BLI.
Two millions of MDA-MB-435s-luc cells pre-treated for 24 hours with JPH1701 (1 μM) or vehicle were grafted in MFP of NMRI/Nude mice. […] Two weeks post-graft, primary tumors were measured, weekly, during 6 weeks in three dimensions with a caliper and tumor volume was calculated (black circles: vehicle, open circles: JPH1701). […] Two weeks post-graft, the number of cancer cells in the primary tumor was evaluated weekly during 6 weeks by BLI imaging (black circles: vehicle, open circles: JPH1701). […]
The growth of primary tumors was weekly evaluated by caliper measurement and by bioluminescence imaging (BLI). The tumor volume was calculated as length×width×depth and the primary tumor was surgical removed when its volume attempted 500 mm3 (6-7 weeks post graft). Mice were euthanized 8 weeks after tumor excision and metastases were detected ex vivo by bioluminescence imaging in lymph nodes, lungs, rachis, and bone legs. […]

Substance: hexadecyloxy-2-O-methyl-sn-glycerol-lactose [JPH1701]
- % of LPA binding ([1]; 0.3 μM): 105.3±8.0%
- % of LPA binding ([1]; 2 μM): 87.2±4.7%
- Interaction with C16-PAF binding site of PAF receptor (PAF receptor): unable to interact
- Effect on endogenous HEK potassium current [2]: not significantly affected
- Effect on PKC activity (PKCs): did not affect
- Metastatic score versus vehicle (Rank Sum Test) (MDA-MB-435s-luc cells; 14-15 weeks, FIG. 10D): significantly different
- Number of cancer cells in the primary tumor (BLI) versus vehicle (MDA-MB-435s-luc cells; 6 weeks, FIG. 12B): did not highlighted any significant difference
- Time course of primary tumor volume versus vehicle (MDA-MB-435s-luc cells; over 6 weeks, FIG. 12A): no difference
